Test [1] addresses T1, MurA (Escherichia coli, UniProt P0A749).
T1 construct: purified enzyme
Put plainly: coupled phosphate-release fluorescence assay (7-methylguanosine / purine nucleoside phosphorylase), global fit. The format is biochemical. The conditions noted are these: competitive with UNAG; 1 mM phosphoenolpyruvate, pH 7.5, 50 mM NaCl.

For test [2], the target named is T1, MurA. Described as above. The conditions noted are these: 1 mM phosphoenolpyruvate, pH 7.5, 50 mM NaCl; global fit with UNAG-3P inhibition. The format is biochemical.

The values below come from article PMC3062530, “A Novel Mechanism of Programmed Cell Death in Bacteria by Toxin–Antitoxin Systems Corrupts Peptidoglycan Synthesis” (PLoS Biology, 2011).

T1 sequence (P0A749 whole entry): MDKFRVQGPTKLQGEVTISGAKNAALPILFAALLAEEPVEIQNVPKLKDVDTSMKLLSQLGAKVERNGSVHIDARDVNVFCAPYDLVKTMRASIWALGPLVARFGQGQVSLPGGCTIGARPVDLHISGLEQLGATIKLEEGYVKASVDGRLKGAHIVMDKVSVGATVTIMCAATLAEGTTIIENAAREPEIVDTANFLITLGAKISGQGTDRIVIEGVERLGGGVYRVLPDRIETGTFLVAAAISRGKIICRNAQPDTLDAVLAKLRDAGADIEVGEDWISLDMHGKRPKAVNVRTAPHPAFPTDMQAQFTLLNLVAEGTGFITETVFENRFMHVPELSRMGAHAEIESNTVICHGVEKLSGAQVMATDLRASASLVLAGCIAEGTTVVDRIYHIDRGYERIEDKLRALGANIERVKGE

The Ki is the equilibrium dissociation constant of an inhibitor or competing ligand from its target. A lower Ki goes with tighter binding. `CC(=O)N[C@H]1[C@@H](OP(=O)(O)OP(=O)(O)OC[C@H]2O[C@@H](n3ccc(=O)[nH]c3=O)[C@H](O)[C@@H]2O)O[C@H](CO)[C@@H](O)[C@@H]1OP(=O)(O)O` [UNAG-3P] gave a Ki on MurA [1] of 7 µM. In other words, the single-digit micromolar range.
What is called Km is the substrate concentration at which the rate is half of its maximum. As to `CC(=O)N[C@H]1[C@@H](OP(=O)(O)OP(=O)(O)OC[C@H]2O[C@@H](n3ccc(=O)[nH]c3=O)[C@H](O)[C@@H]2O)O[C@H](CO)[C@@H](O)[C@@H]1O` [UNAG], the Km on MurA [2] came out at 15 µM.
